Assay results from PubChem BioAssay AID651650 (Sanford-Burnham Center for Chemical Genomics, 2012).
Activity calls are given as the source filed them.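 The calls were made as follows: active = mean IC50 below 20 µM in each of the two panels, so potent in both; inactive = the rest.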

The compounds below were run against Neuropilin-1 (Homo sapiens) (UniProt O14786) (assay: blockers of CendR peptide binding to NRP-1 – biochemical, FP and AlphaScreen panel, dose response (AID 651650)). Conditions: NRP-1 b1b2 / RPARPAR peptide binding, FP or AlphaScreen; FP, mean of runs.
Chain of Neuropilin-1 (Homo sapiens) (O14786 whole entry, looked up): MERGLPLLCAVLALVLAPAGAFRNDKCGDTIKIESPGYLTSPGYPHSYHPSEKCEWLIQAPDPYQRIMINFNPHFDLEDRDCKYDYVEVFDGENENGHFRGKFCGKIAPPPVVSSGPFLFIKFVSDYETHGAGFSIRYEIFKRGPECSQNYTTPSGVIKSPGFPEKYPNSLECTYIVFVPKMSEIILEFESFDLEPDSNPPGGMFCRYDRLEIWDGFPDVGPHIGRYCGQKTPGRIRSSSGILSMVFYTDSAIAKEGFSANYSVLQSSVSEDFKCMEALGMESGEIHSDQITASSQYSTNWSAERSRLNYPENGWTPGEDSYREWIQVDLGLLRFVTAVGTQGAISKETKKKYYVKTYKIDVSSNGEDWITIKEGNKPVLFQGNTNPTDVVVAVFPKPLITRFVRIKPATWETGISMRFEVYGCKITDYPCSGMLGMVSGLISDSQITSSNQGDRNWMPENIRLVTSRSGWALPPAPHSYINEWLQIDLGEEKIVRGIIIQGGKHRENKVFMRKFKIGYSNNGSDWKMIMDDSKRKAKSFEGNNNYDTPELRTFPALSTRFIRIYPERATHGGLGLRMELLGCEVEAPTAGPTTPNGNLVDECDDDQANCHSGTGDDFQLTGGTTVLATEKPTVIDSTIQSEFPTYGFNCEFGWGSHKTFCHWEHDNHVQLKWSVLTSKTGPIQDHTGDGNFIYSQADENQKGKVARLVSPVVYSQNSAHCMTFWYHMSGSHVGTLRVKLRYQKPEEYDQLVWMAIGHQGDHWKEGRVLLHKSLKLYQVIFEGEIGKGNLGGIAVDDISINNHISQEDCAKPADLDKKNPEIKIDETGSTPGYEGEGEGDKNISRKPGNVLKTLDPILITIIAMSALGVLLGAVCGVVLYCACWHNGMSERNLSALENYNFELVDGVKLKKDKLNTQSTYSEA

| Compound | IC50 |
| --- | --- |
| FC(F)(F)c1cc(C(F)(F)F)c2ccc(Oc3ccccc3)nc2n1 | > 95 µM (inactive) |
| CCN(CC)C(=O)c1cccc(-c2csc(C(NC(C)=O)c3cccc(OC)c3)n2)c1 (stereo not given) | > 95 µM (inactive) |
| COc1ccc(N=C2C(=Nc3ccc(OC)cc3)N(c3ccc(N(C)C)cc3)C(=S)N2c2ccc(OC)cc2)cc1 | > 95 µM (inactive) |
| CC(=O)Nc1cc(F)c2c(c1F)Cc1cc(F)ccc1-2 | > 95 µM (inactive) |
| C=C1CCN([C@@H](CC(C)C)C(=O)NCc2ccccc2)S(=O)(=O)c2ccccc21 | > 95 µM (inactive) |
| CCc1cc(C(=O)OC)c(NC(=O)c2ccoc2C)s1 | > 95 µM (inactive) |
| CCN(CC)C(=O)CSc1nnc(-c2c[nH]c3ccccc23)o1 | > 95 µM (inactive) |
| C[C@@H](C(=O)Nc1cccnc1)n1c(=O)[nH]c2ccccc2c1=O | > 95 µM (inactive) |
| COc1cccc(OCCNC(=O)Nc2cc(F)c(F)cc2Cl)c1 | > 95 µM (inactive) |
| O=C(Nc1cccc(C(F)(F)F)c1)C1Cc2c(-c3cccc(F)c3)ccnc2O1 (stereo not given) | > 95 µM (inactive) |
| COc1cc2c(cc1OC)C(Nc1ccc(S(N)(=O)=O)cc1)=NC(C)(C)C2 | > 95 µM (inactive) |
| CCOC(=O)C(NC(=O)CC(C)C)(Nc1sc(C)c(CC)c1C#N)C(F)(F)F (stereo not given) | > 95 µM (inactive) |
| Cc1cc2c(cc1C)NC(c1nc3ccccc3[nH]1)C1=C(CC(C)(C)CC1=O)N2 (stereo not given) | > 95 µM (inactive) |
| COc1cccc(OCC(=O)NNC(=S)Nc2ccc(Cl)cc2Cl)c1 | > 95 µM (inactive) |
| Nc1ccc(C#Cc2c(-c3ccsc3)oc3ccc(N4CCOCC4)cc23)cc1 | > 95 µM (inactive) |
| Cn1c(=O)c2[nH]c(NCCCN3CCOCC3)nc2n(C)c1=O | inactive |
| COc1cc2oc(=O)ccc2cc1[C@@H](O)[C@@H]1OC(C)(C)OC1(C)C | > 95 µM (inactive) |

Continued, values first:

| IC50 | Compound |
| --- | --- |
| > 95 µM (inactive) | O=C(NCCCN1CCCC(O)C1)c1cc(COc2ccc(F)cc2F)on1 (stereo not given) |
| > 95 µM (inactive) | Cc1ccc(C(=O)N/C(=C\c2ccc(-c3ccccc3[N+](=O)[O-])o2)C(=O)NCCCN2CCOCC2)cc1 |
| > 95 µM (inactive) | NC(=O)CC[C@H](NC(=O)c1ccc(F)cc1)C(=O)N1CCN(Cc2ccc3c(c2)OCO3)CC1 |
| > 95 µM (inactive) | CC#CCN(Cc1ccco1)C(=O)C1CCC(=O)N(Cc2ccccc2F)C1 (stereo not given) |
| > 95 µM (inactive) | CCOC(=O)c1ccc(NC(=O)CN2CCc3ccccc3C2)cc1 |

Same assay, conditions: NRP-1 b1b2 / RPARPAR peptide binding, FP or AlphaScreen; FP, run 1; individual panel run IC50

| Compound | IC50 [µM] |
| --- | --- |
| COC(=O)C1=C(c2cccc(C#N)c2)C[C@@H]2CC[C@H]1N2C(=O)NCCO | > 95 |
| Oc1ccccc1-c1ccn[nH]1 | > 95 |
| C/C(=N\N=c1/sc2ccccc2n1C)c1ccccn1 | > 95 |
| Fc1cnc(N2CCOCC2)nc1N1CCOCC1 | > 95 |
| C[C@@H](NC(=O)c1[nH]cnc1C(=O)Nc1cccc(Cl)c1)c1ccccc1 | > 95 |
| CCCCCCCN1C(Nc2ccccc2)=NC[C@@H]1Cc1ccccc1 | > 95 |
| C=C(C)C1CC=C(C)/C(=N\NC(=O)CNc2ccccc2OC)C1 (stereo not given) | > 95 |
| c1ccc2c3n(nc2c1)CCCO3 | > 95 |
| CCOC(=O)C1=C(C)NC2=C(C(=O)CCC2)C1c1cn(Cc2ccc(Cl)cc2Cl)nc1-c1ccccc1 (stereo not given) | > 95 |
| Cc1[nH]n(-c2ccccc2)c(=S)c1C=Nc1cccc([N+](=O)[O-])c1 | > 95 |
| CN(c1ccc(OCC(=O)OCC(=O)Nc2ccc([N+](=O)[O-])cc2)cc1)S(=O)(=O)c1cccs1 | > 95 |
| Nc1ncnc2[nH]c(=S)[nH]c12 | > 95 |
| CC(/C=C/c1ccccc1)=N\NC(=O)CCc1ccccc1 | > 95 |
| Cc1ccc(C(=O)NCCCc2ccccc2)c(C)c1 | > 95 |
| FC(F)(F)c1cc(C(F)(F)F)c2ccc(Oc3ccccc3)nc2n1 | > 95 |
| CCN(CC)C(=O)c1cccc(-c2csc(C(NC(C)=O)c3cccc(OC)c3)n2)c1 (stereo not given) | > 95 |

| Compound | IC50 [µM] |
| --- | --- |
| COc1ccc(N=C2C(=Nc3ccc(OC)cc3)N(c3ccc(N(C)C)cc3)C(=S)N2c2ccc(OC)cc2)cc1 | > 95 |
| CC(=O)Nc1cc(F)c2c(c1F)Cc1cc(F)ccc1-2 | > 95 |
| C=C1CCN([C@@H](CC(C)C)C(=O)NCc2ccccc2)S(=O)(=O)c2ccccc21 | > 95 |
| CCc1cc(C(=O)OC)c(NC(=O)c2ccoc2C)s1 | > 95 |
| CCN(CC)C(=O)CSc1nnc(-c2c[nH]c3ccccc23)o1 | > 95 |
| C[C@@H](C(=O)Nc1cccnc1)n1c(=O)[nH]c2ccccc2c1=O | > 95 |
| COc1cccc(OCCNC(=O)Nc2cc(F)c(F)cc2Cl)c1 | > 95 |
| O=C(Nc1cccc(C(F)(F)F)c1)C1Cc2c(-c3cccc(F)c3)ccnc2O1 (stereo not given) | > 95 |
| COc1cc2c(cc1OC)C(Nc1ccc(S(N)(=O)=O)cc1)=NC(C)(C)C2 | > 95 |
| CCOC(=O)C(NC(=O)CC(C)C)(Nc1sc(C)c(CC)c1C#N)C(F)(F)F (stereo not given) | > 95 |
| Cc1cc2c(cc1C)NC(c1nc3ccccc3[nH]1)C1=C(CC(C)(C)CC1=O)N2 (stereo not given) | > 95 |
| COc1cccc(OCC(=O)NNC(=S)Nc2ccc(Cl)cc2Cl)c1 | > 95 |
| Nc1ccc(C#Cc2c(-c3ccsc3)oc3ccc(N4CCOCC4)cc23)cc1 | > 95 |
| Cn1c(=O)c2[nH]c(NCCCN3CCOCC3)nc2n(C)c1=O | > 95 |
| COc1cc2oc(=O)ccc2cc1[C@@H](O)[C@@H]1OC(C)(C)OC1(C)C | > 95 |

Results, then the compound that gave them:

| IC50 [µM] | Compound |
| --- | --- |
| > 95 | COc1ccc(NC(=O)CN2CCN(c3c(C)cc(C)cc3C)CC2)cc1 |
| 20.1 | COc1cccc(NC(=O)CSc2nc(O)c(C)c(=O)n2-c2ccc(C)cc2)c1 |
| > 95 | CCCCN(c1ccccc1)S(=O)(=O)c1ccc2c(c1)CCN2C(=O)CCC(=O)O |
| > 95 | Cc1nc(SCc2ccc(C(=O)O)cc2)nc2c1CCCC2 |
| > 95 | O=C(NNC(=O)c1csc(N2CCOCC2)n1)c1ccc(=O)[nH]c1 |
| > 95 | COc1ccc(C(=O)N[C@H](C(=O)Nc2nc3c(s2)CCCC3)C(C)C)cc1 |
| > 95 | CCc1ccc(C2CC(=O)N(c3cccc(F)c3)C3=C2C(=O)OC3)cc1 (stereo not given) |
| > 95 | O=C1N[C@H](Cc2c[nH]c3ccccc23)COC(=O)[C@H](Cc2ccc(F)cc2)C/C=C\C[C@H]1CC(=O)N(CCO)Cc1ccccc1 |
| > 95 | O=C(NCCCN1CCCC(O)C1)c1cc(COc2ccc(F)cc2F)on1 (stereo not given) |
| > 95 | Cc1ccc(C(=O)N/C(=C\c2ccc(-c3ccccc3[N+](=O)[O-])o2)C(=O)NCCCN2CCOCC2)cc1 |
| > 95 | NC(=O)CC[C@H](NC(=O)c1ccc(F)cc1)C(=O)N1CCN(Cc2ccc3c(c2)OCO3)CC1 |
| > 95 | CC#CCN(Cc1ccco1)C(=O)C1CCC(=O)N(Cc2ccccc2F)C1 (stereo not given) |
| > 95 | CCOC(=O)c1ccc(NC(=O)CN2CCc3ccccc3C2)cc1 |

Same assay, conditions: NRP-1 b1b2 / RPARPAR peptide binding, FP or AlphaScreen; FP, run 2; individual panel run IC50

| Compound | IC50 [µM] |
| --- | --- |
| COC(=O)C1=C(c2cccc(C#N)c2)C[C@@H]2CC[C@H]1N2C(=O)NCCO | > 95 |
| Oc1ccccc1-c1ccn[nH]1 | > 95 |
| C/C(=N\N=c1/sc2ccccc2n1C)c1ccccn1 | > 95 |
| Fc1cnc(N2CCOCC2)nc1N1CCOCC1 | > 95 |
| C[C@@H](NC(=O)c1[nH]cnc1C(=O)Nc1cccc(Cl)c1)c1ccccc1 | > 95 |
| CCCCCCCN1C(Nc2ccccc2)=NC[C@@H]1Cc1ccccc1 | > 95 |
| C=C(C)C1CC=C(C)/C(=N\NC(=O)CNc2ccccc2OC)C1 (stereo not given) | > 95 |
| c1ccc2c3n(nc2c1)CCCO3 | > 95 |
| CCOC(=O)C1=C(C)NC2=C(C(=O)CCC2)C1c1cn(Cc2ccc(Cl)cc2Cl)nc1-c1ccccc1 (stereo not given) | > 95 |
| Cc1[nH]n(-c2ccccc2)c(=S)c1C=Nc1cccc([N+](=O)[O-])c1 | > 95 |
| CN(c1ccc(OCC(=O)OCC(=O)Nc2ccc([N+](=O)[O-])cc2)cc1)S(=O)(=O)c1cccs1 | > 95 |
| Nc1ncnc2[nH]c(=S)[nH]c12 | > 95 |
| CC(/C=C/c1ccccc1)=N\NC(=O)CCc1ccccc1 | > 95 |
| Cc1ccc(C(=O)NCCCc2ccccc2)c(C)c1 | > 95 |
| FC(F)(F)c1cc(C(F)(F)F)c2ccc(Oc3ccccc3)nc2n1 | > 95 |
| CCN(CC)C(=O)c1cccc(-c2csc(C(NC(C)=O)c3cccc(OC)c3)n2)c1 (stereo not given) | > 95 |

| Compound | IC50 [µM] |
| --- | --- |
| COc1ccc(N=C2C(=Nc3ccc(OC)cc3)N(c3ccc(N(C)C)cc3)C(=S)N2c2ccc(OC)cc2)cc1 | > 95 |
| CC(=O)Nc1cc(F)c2c(c1F)Cc1cc(F)ccc1-2 | > 95 |
| C=C1CCN([C@@H](CC(C)C)C(=O)NCc2ccccc2)S(=O)(=O)c2ccccc21 | > 95 |
| CCc1cc(C(=O)OC)c(NC(=O)c2ccoc2C)s1 | > 95 |
| CCN(CC)C(=O)CSc1nnc(-c2c[nH]c3ccccc23)o1 | > 95 |
| C[C@@H](C(=O)Nc1cccnc1)n1c(=O)[nH]c2ccccc2c1=O | > 95 |
| COc1cccc(OCCNC(=O)Nc2cc(F)c(F)cc2Cl)c1 | > 95 |
| O=C(Nc1cccc(C(F)(F)F)c1)C1Cc2c(-c3cccc(F)c3)ccnc2O1 (stereo not given) | > 95 |
| COc1cc2c(cc1OC)C(Nc1ccc(S(N)(=O)=O)cc1)=NC(C)(C)C2 | > 95 |
| CCOC(=O)C(NC(=O)CC(C)C)(Nc1sc(C)c(CC)c1C#N)C(F)(F)F (stereo not given) | > 95 |
| Cc1cc2c(cc1C)NC(c1nc3ccccc3[nH]1)C1=C(CC(C)(C)CC1=O)N2 (stereo not given) | > 95 |
| COc1cccc(OCC(=O)NNC(=S)Nc2ccc(Cl)cc2Cl)c1 | > 95 |
| Nc1ccc(C#Cc2c(-c3ccsc3)oc3ccc(N4CCOCC4)cc23)cc1 | > 95 |
| Cn1c(=O)c2[nH]c(NCCCN3CCOCC3)nc2n(C)c1=O | 56.1 |
| COc1cc2oc(=O)ccc2cc1[C@@H](O)[C@@H]1OC(C)(C)OC1(C)C | > 95 |

Further lines, results first:

| IC50 [µM] | Compound |
| --- | --- |
| > 95 | COc1ccc(NC(=O)CN2CCN(c3c(C)cc(C)cc3C)CC2)cc1 |
| > 95 | COc1cccc(NC(=O)CSc2nc(O)c(C)c(=O)n2-c2ccc(C)cc2)c1 |
| > 95 | CCCCN(c1ccccc1)S(=O)(=O)c1ccc2c(c1)CCN2C(=O)CCC(=O)O |
| > 95 | Cc1nc(SCc2ccc(C(=O)O)cc2)nc2c1CCCC2 |
| > 95 | O=C(NNC(=O)c1csc(N2CCOCC2)n1)c1ccc(=O)[nH]c1 |
| > 95 | COc1ccc(C(=O)N[C@H](C(=O)Nc2nc3c(s2)CCCC3)C(C)C)cc1 |
| > 95 | CCc1ccc(C2CC(=O)N(c3cccc(F)c3)C3=C2C(=O)OC3)cc1 (stereo not given) |
| > 95 | O=C1N[C@H](Cc2c[nH]c3ccccc23)COC(=O)[C@H](Cc2ccc(F)cc2)C/C=C\C[C@H]1CC(=O)N(CCO)Cc1ccccc1 |
| > 95 | O=C(NCCCN1CCCC(O)C1)c1cc(COc2ccc(F)cc2F)on1 (stereo not given) |
| > 95 | Cc1ccc(C(=O)N/C(=C\c2ccc(-c3ccccc3[N+](=O)[O-])o2)C(=O)NCCCN2CCOCC2)cc1 |
| > 95 | NC(=O)CC[C@H](NC(=O)c1ccc(F)cc1)C(=O)N1CCN(Cc2ccc3c(c2)OCO3)CC1 |
| > 95 | CC#CCN(Cc1ccco1)C(=O)C1CCC(=O)N(Cc2ccccc2F)C1 (stereo not given) |
| > 95 | CCOC(=O)c1ccc(NC(=O)CN2CCc3ccccc3C2)cc1 |
